Earlier results, collected in patent US20160021884A1, “STABLE SOLUTIONS OF 1,2-BENZISOTHIAZOLIN-3-ONE” (TITAN CHEMICALS LIMITED, priority 2014, published 2016).

Details: 5° C., 4 weeks

SMILES: O=c1[n-]sc2ccccc12.[Li+] [lithium salt of BIT]
- Stability of purely aqueous solution: stable at 5 °C for 4 weeks
